Measured values as given in patent US6207648A, “Methods of using cytochrome P450 reductase for the enhancement of P450-based anti-cancer gene therapy” (priority 1998, dated 2001).

Legend:
[1] = test system: 9L and 9L-R cells infected with Ad.CMV-2B1; test: Adenovirus-mediated CYP2B1 gene transduction, CPA cytotoxicity (XTT); format: cell-based, rat
Procedure: FIGS. 8A and 8B are graphs depicting much greater cytotoxicity of adenovirus-mediated P450 gene transfer combined with CPA treatment in the case of 9L tumor cells engineered to express RED (FIG. 8B), compared to wild-type 9L cells that express basal RED activity (FIG. 8A). Cells were infected with Ad.CMV-2B1 at multiplicities of infection (MOI) ranging from 50-800, as indicated by the values in parenthesis on the right of each panel. Uninfected cells (UI) were used as controls. At 24 hours post infection, cells were replated at 500 cells per well in duplicate on 96-well plates. CPA was then added at concentrations up to 2 mM. After 5 days of incubation, cell survival was determined by an XTT colorimetric assay.
Adenovirus-mediated CYP2B1 gene transduction: A recombinant adenovirus, Ad.CMV-2B1, carrying the CYP2B1 gene was constructed as described in Chen, L., et al., Cancer Res. 56:1331-1340 (1996). Large scale production of recombinant adenovirus was performed by growth in 293 cells followed by purification by double cesium gradient ultracentrifugation (Graham, F. L. and Prevec, L., "Manipulation of Adenovirus Vectors" in Methods in Molecular Biology:Gene Transfer and Expression Protocols, volume 7, E. J. Murray (ed.), The Human Press, Inc., Clifton, N.J., pages 109-127 (1991)). The titer of purified adenovirus was determined in a spectrophotometer at 260 nm and by plaque assays. Ad.CMV-2B1 was added to the cells plated on 30 mm diameter tissue culture plates at multiplicities of infection (MOI) as indicated in the figure legends. Twenty four hours after viral infection, the infected cells were trypsinized and replated at 500 cells/well onto 96 well tissue culture plates and treated with CPA. Four to seven days after CPA treatment, the number of surviving cells was determined using the XTT assay described above.

[2] = test system: human P450 genes expressed in 9L cells; test: Semicarbazide trapping/fluorescence assay for 4-hydroxy metabolites in 9L/P450 cells; format: in vitro ADME; conditions: 2 mM, 24 h
Procedure: Each of the indicated 9L cell lines was seeded on a 48-well plate in duplicate at 2×10^4 cells/well. […] Background fluorescence observed in 9L/Babe cells was subtracted from each sample.
Semicarbazide trapping/fluorescence assay for 4-hydroxy metabolites: 9L/P450 cells were seeded on a 48 well plate in duplicate at 2×10^4 cells/ well. […] Culture media, 400 μl, was removed and then treated with 160 μl of ice cold 5.5% (w/v) ZnSO4, 160 μl ice cold saturated Ba(OH)2, and 80 μl ice cold 0.01 M HCl. The mixture was vortexed and then centrifuged at 16,000 g for 15 minutes. 300 μl of the supernatant was transferred under dim light to a clean tube containing 540 μl of water and 160 μl of freshly prepared fluorescent reagent (60 mg 3-aminophenol and 60 mg hydroxylamine-HCl per 10 ml of 1 M HCl). The tubes were vortexed and heated at 90° C. for 20 minutes. Fluorescent readings were obtained at 350 nm (excitation), and 515 nm (emission) using 800 μl of each sample. Fluorescent values were converted to nmol 4-hydroxy metabolite/ml of original culture media based on standard curves generated using 4-hydroperoxy-CPA and then normalized to units of nmol 4-hydroxy metabolite formed per 24 hours per 10^6 cells.

[3] = test system: 9L/pBabe, 9L/2B6, 9L/hRED and 9L/2B6/hRED gliosarcoma cells; test: Cytotoxicity assay of 9L cells transduced with human RED and/or P450 2B6, normoxic or hypoxic (Example 3)
Procedure: Cells were seeded at 4000 cells/well in 48-well plates and treated with increasing concentrations of CPA for 4 days. Cell growth in comparison to drug-free controls was determined by crystal violet staining and is presented as mean±SD for n=3 replicates.
FIG. 21 is a graph depicting the cytotoxic effects of the bioreductive drug TPZ toward 9L/pBabe control cells and 9L cells transduced with retroviruses encoding human RED and/or P450 2B6 under normoxic culture conditions. Cells were seeded at 4000 cells/well in 48-well plates and treated with increasing concentrations of TPZ for 4 days. Cell growth in comparison to drug-free controls was determined by crystal violet staining and is presented as mean±SD for n=3 replicates.
FIG. 22 is a graph depicting the cytotoxicity of increasing concentrations of TPZ under hypoxic conditions (1% O2) toward 9L tumor cells transduced with retroviruses encoding P450 2B6 and/or human RED. 9L/pBabe cells served as controls. Cells were seeded at 4000 cells/well in 48-well plates and treated with increasing concentrations of TPZ for 4 days. Cell growth in comparison to drug-free controls was determined by crystal violet staining and is presented as mean±SD for n=3 replicates.
FIGS. 24A, 24B and 24C are graphs depicting the cytotoxic effects of TPZ (5 or 10 μM, as indicated) in combination with increasing concentrations of CPA under normoxic culture conditions (19.6% O2, 5% CO2). The data shown were obtained using 9L/2B6/hRED cells (FIG. 24A), 9L/hRED cells (FIG. 24B) and 9L/pBabe (control) cells (FIG. 24C). Data were compared to the cytotoxicity of increasing concentrations of CPA alone (i. e., in the absence of TPZ) measured using the same pools of tumor cells. Cells were seeded at 4000 cells/well in 48-well plates and then treated with the indicated drug concentrations for 4 days. Cell growth in comparison to drug-free controls (i.e., in the absence of CPA and TPZ) was determined by crystal violet staining and is presented as mean±SD for n=3 replicates.
FIGS. 25A, 25B and 25C are graphs depicting the cytotoxic effects of TPZ (0.5 or 1.5 μM, as indicated) in combination with increasing concentrations of CPA under hypoxic culture conditions (1% O2, 5% CO2). The data shown were obtained using 9L/2B6/hRED cells (FIG. 25A), 9L/hRED cells (FIG. 25B) and 9L/pBabe (control) cells (FIG. 25C). Data were compared to the cytotoxicity of increasing concentrations of CPA alone (i.e., in the absence of TPZ) measured using the same pools of tumor cells. Cells were seeded at 4000 cells/well in 48-well plates and then treated with the indicated drug concentrations for 4 days. Cell growth in comparison to drug-free controls (i.e., in the absence of CPA and TPZ) was determined by crystal violet staining and is presented as mean±SD for n=3 replicates.
Cytotoxicity assays: To evaluate the chemosensitivity of the P450- and P450/RED-expressing 9L tumor cells, cells were plated in triplicate at 4000 cells/well of a 48-well plate 18-24 hours prior to drug treatment. Cells were then treated with drugs (0 to 1 mM CPA or 0 to 50 μM TPZ, as indicated in each experiment) and placed in a tissue culture incubator maintained under hypoxic conditions (1% O2, 5% CO2, 94% N2) or under normoxic conditions (19.6% O2, 5% CO2, 75.4% N2) for a period of 4 days. 9L/pBabe cells, which were transduced with the empty retroviral plasmid pBabe-puro (see, Example 2), served as controls. Cells remaining after this time were quantitated using a crystal violet/alcohol-extraction assay, as described under Example 2. Data are presented as cell number relative to drug-free controls, mean±SD values for triplicate samples, unless indicated otherwise.

[4] = test system: 9L gliosarcoma cells (parental, CYP2B1+, CYP2B1+ RED+++); test: In vitro growth inhibition assay, XTT (Example 1); conditions: lines PR11, PR7 vs P3, P17; growth inhibition assay
Procedure: Cells (1000/well) seeded in 96-well plates were treated with the indicated concentrations of CPA for 4 days. Corresponding controls received no drug treatment. Cell survival was determined by an XTT calorimetric assay. Data (mean for triplicate samples) were expressed as growth ratio (%), i. e., cell number (XTT activity) in drug treated plates as a percentage of the corresponding drug-free controls.
Cells (500/well) seeded in 96-well plates were treated with 1 mM cyclophosphamide in the absence or presence of the RED inhibitors AADP (0.5 mM) or DPI (5 μM). Corresponding controls received no drug treatment. Cell survival was determined by an XTT colorimetric assay. Data (mean for triplicate samples) are expressed as growth ratio (%), i.e., cell number (XTT activity) in drug treated plates as a percentage of the corresponding drug-free controls and are representative of 2-3 independent experiments. AADP and DPI were added to the cells 30 minutes prior to CPA treatment.
(B) Growth inhibition assay--Cells (1000/well) seeded in 96 well plates were treated with the indicated concentrations of CPA for 4-5 days. Corresponding controls received no drug treatment. Cell survival was determined by an XTT colorimetric assay, a cell proliferation assay that measures mitochondrial dehydrogenase activity of viable cells (Scudiero, D. A., et al., Cancer Res. 48:4827-4833 (1988)).

[5] = test system: 9L tumors in female Fischer 344 rats; test: In vivo cytotoxicity / tumor excision assay, s.c. 9L tumors; set-up: species or system rat
Procedure: FIG. 9 is a graph depicting the results of an in vivo tumor excision assay, which quantitates the extent of CPA-induced tumor cell kill in rats in vivo for 9L tumors, compared to 9L tumors engineered to express P450 alone (CYP2B1^+) or P450 in combination with RED (CYP2B1^+ RED^+++).Female Fischer 344 rats were inoculated with parental 9L, CYP2B1^+, and CYP2B1^+ RED^+++ tumor cells by subcutaneous injection of 2×10^6 tumor cells/0.2 ml in the hindleg as described below in the "Materials and Methods" section of Example 1. At 2 weeks after tumor implantation, each animal received a single injection of CPA (50 or 100 mg/kg body weight) or saline as control. Twenty four hours later, tumors were excised, and single cell suspensions were prepared for assay of colony formation activity. Results are presented as mean survival fractions as compared to control groups, for 4 or 5 determinations; bars, standard error (SE).
In vivo cytotoxicity assay: Tumor cells were grown subcutaneously as solid tumors in female Fischer 344 rats (120-150g). Each rat was inoculated by subcutaneous injection of one tumor cell line at the right thigh and a second tumor cell line at the left thigh at 2×10^6 cells/site. Rats were randomized and divided into three groups. One group was injected with saline as a control. The other two groups were treated with CPA at 50 mg/kg or 100 mg/kg body weight given as a single intraperitoneal injection 2 weeks after tumor implantation. At 24 hours after CPA injection, the rats were sacrificed and soaked briefly in 75% ethanol. The tumors were excised, suspended in DMEM, and minced under sterile conditions. […] The single cell suspensions were counted and plated at densities of 200, 2×10^3 and 2×10^4 cells/well of a 6-well plate, in duplicate, to determine cell viability by a colony formation assay. […] Cells were grown for 7 days and colonies (>50 cells) were then stained with crystal violet and counted. Results are expressed as the surviving fractions SEM of cells from drug treated groups compared to untreated controls.

9L-lacZ cells = test: Bystander cytotoxicity in co-culture with lacZ-marked 9L cells; format: cell-based, rat; conditions: 1 mM CPA, 5 days
Procedure: CYP2B1^+ cells (FIG. 6A) and CYP2B1^+ RED^++ cells (FIG. 6C) were mixed with equal numbers of lacZ-marked 9L cells and cultured in the absence (FIGS. 6A and 6C) or in the presence (FIGS. 6B and 6D) of 1 mM CPA. Shown are 0.5% glutaraldehyde-fixed cells, 5 days after beginning drug treatment, stained with X-Gal for 4 hours to visualize the 9L-lacZ cells (dark staining).

O=P1(N(CCCl)CCCl)NCCCO1 (stereo not shown) [CPA, cyclophosphamide]
CPA sensitivity of cells infected with Ad.CMV-2B1 ([1]; MOI 50 to 800, most striking in RED overexpressing cells): acquired CPA sensitivity | enhancement of drug cytotoxicity in Ad.CMV-2B1-infected cells at higher viral multiplicities ([1]; RED-overexpressing 9L cells): further enhanced | CPA sensitivity of 9L cells infected with lacZ adenovirus ([1]; control experiment): did not sensitize the cells | enhancement of drug cytotoxicity in Ad.CMV-2B1-infected cells at higher viral multiplicities ([1]; parental 9L cells, MOI above 200): not further enhanced | effect of RED transduction on drug activation in 9L parental cells [2]: did not stimulate drug activation | effect of RED transduction on cytotoxic metabolites accumulating in the culture medium ([2]; CYP2B6 and CYP2C18-Met cells): significant increase in cytotoxic metabolites | effect of hypoxia on CPA cytotoxicity toward 9L/2B6/RED or 9L/2B6 cells ([3]; 1% O2): does not significantly alter the cytotoxicity | CPA cytotoxicity on retroviral transduction of hRED ([3]; 9L/2B6/hRED vs 9L/2B6, normoxic): large increase in CPA cytotoxicity | CPA cytotoxicity in 9L/hRED and 9L/pBabe cells ([3]; normoxic): No CPA cytotoxicity was observed | cytotoxic response of CYP2B1+ cells on RED overexpression [4]: significantly enhanced the cytotoxic response | killing of CYP2B1+ tumors compared to wild type 9L tumors ([5]; 100 mg/kg, 24 h): up to 10 fold | additional tumor cell killing in CYP2B1+ RED+++ tumors ([5]; 24 h after CPA): approximately 10 fold | overall increase in tumor cell kill in vivo over hepatic drug activation alone ([5]; CYP2B1 + RED): 50-100 fold | bystander cytotoxicity of CYP2B1+ 9L cells toward CYP2B1- 9L cells (9L-lacZ cells): substantial, albeit incomplete, bystander cytotoxicity | bystander killing of 9L/lacZ cells by co-culture with CYP2B1+ RED+++ cells (9L-lacZ cells): near complete killing | elimination of CYP2B1+ and CYP2B1+ RED+++ cells (9L-lacZ cells; unstained cells): essentially eliminated
